# Test results from patent US20040224981A1, “Antibacterial methods and compositions” (priority 2003, published 2004).
# Where a name gives a salt, the structure may show the parent alone. Read-outs that look alike come from different tables or passages of the source.
# Columns and labels:
# E. faecalis = experiment: MIC against E. faecalis; type: cell-based; settings: Enterococcus faecalis, Table 8
# Description: The MRS inhibitor 4 alone and in combination with mupirocin (mupirocin salt and 1:1 combination) were tested against a collection of Gram-positive pathogens.
# (§1) MRSi compound 5 alone and in combination with mupirocin was tested recent clinical isolates of E. faecalis (n=28) and E. faecium (n=23). Both the acetate salt and mupirocinate salts of MRSi compound 5 maintained potent activity against vancomycin-susceptible and—resistant enterococci (Tables 8, 9, and 10).
# E. faecium = experiment: MIC against E. faecium; type: cell-based; settings: Enterococcus faecium, ATCC33667
# Description: as §1
# [1] = system: S. aureus RN4220 (pYH4-MRS); experiment: Mode of action: MIC with MRS over-production; type: cell-based
# Description: The strain expresses high levels of MRS upon the addition of 0.01 μg/mL of anyhdrotetracycline.
# S. aureus = experiment: MIC against S. aureus strains and clinical isolates (broth microdilution); type: cell-based, Staphylococcus aureus
# Description: were tested against a collection of clinical isolates of S. aureus including strains that were multi-resistant to mupirocin and to other agents such as gentamicin and oxacillin.
# The acetate and mupirocin salts of the MRS inhibitor compound 5 were tested against a collection of both low and high-level mupirocin resistant clinical isolates of S. aureus (Table 6).
# The bacterial strains were tested for susceptibility to mupirocin and MRSi compound 2 using the broth microdilution method in accordance with NCCLS guideline to determine their MICs.
# Briefly, the MIC and checkerboard titration assays were performed with strains in microtiter trays with cation-supplemented Mueller-Hinton broth (Difco). Inocula were prepared by suspending growth from blood agar plates in sterile saline to a density equivalent to that of a 0.5 McFarland standard and were diluted […] to produce a final inoculum of 5×10^5 CFU/ml. The trays were incubated aerobically overnight. Standard quality control strains were included with each run. Fractional inhibitory concentrations (FICs) were calculated as the MIC of drug A or B in combination/MIC of drug A or B alone, and the FIC index was obtained by adding the two FICs. FIC indices were interpreted as synergistic if the values were ≦0.5, additive or indifferent if the values were >0.5 to 4, and antagonistic if the values were >4.0.
# [2] = system: S. aureus ATCC 29213 and 31-1334; experiment: Selection of spontaneous resistant mutants (mutation frequency); type: cell-based, Staphylococcus aureus
# Description: Approximately, 10^9 bacteria were plated onto Mueller-Hinton agar supplemented with 10% horse blood and containing various concentrations of the test compounds alone and in combination. After 24 and 48 hours of incubation at 35° C., the bacterial colonies were counted and the frequencies of mutation were determined relative to the total viable count of organisms that were plated. Resistant clones were re-plated once on plates containing the same concentration of agent that was used for the selection.
# [3] = system: S. aureus, coagulase-negative staphylococci and S. pyogenes strains; experiment: Serial passage, whole panel of 19 isolates; type: cell-based; settings: after 20 passages; observed with five of the 19 organisms tested
# Description: MRSi compound 5 (acetate salt), mupirocin and MRSi compound 5/mupirocin 1:1 combination were tested for development of resistance following serial passage using 19 isolates, including S. aureus, coagulase-negative staphylococci and S. pyogenes strains.
# [4] = ATCC 51299 / VRE, E. faecalis ATCC 51299 (VRE)
# [5] = S. aureus RN4220 (pYH4-MRS), +aTC (MRS over-expression)
smiles,measurement,setting,value
"CN[C@H](CC(C)C)C(=O)N[C@H]1C(=O)N[C@@H](CC(N)=O)C(=O)N[C@H]2C(=O)N[C@H]3C(=O)N[C@H](C(=O)N[C@H](C(=O)O)c4cc(O)cc(O)c4-c4cc3ccc4O)[C@H](O)c3ccc(c(Cl)c3)Oc3cc2cc(c3O[C@@H]2O[C@H](CO)[C@@H](O)[C@H](O)[C@H]2O[C@H]2C[C@](C)(N)[C@H](O)[C@H](C)O2)Oc2ccc(cc2Cl)[C@H]1O [Vancomycin, reference compound]",MIC,E. faecalis; [4],4 µg/mL
same,MIC,E. faecalis; E. faecalis 1,0.12 µg/mL
same,MIC,E. faecalis; E. faecalis 7,0.5 µg/mL
same,MIC,E. faecium,0.5 µg/mL
same,MIC,[1]; [5],0.5 µg/mL
same,MIC,[1]; Staphylococcus aureus,0.5 µg/mL
"Brc1cc(Br)c2c(c1)C(NCCCNc1nc3ncccc3[nH]1)CCN2 (stereo not shown) [MRSi cmpd 2, N-(6,8-Dibromo-1,2,3,4-tetrahydroquinolin-4-yl)-N′-(1H-imidazo[4,5-b]pyridine-2-yl)-propane-1,3-diamine dihydrochloride]",MIC,"S. aureus; Staphylococcus aureus, ATCC43300, S. aureus ATCC 43300 (ORSA), read-out: MIC",0.25 µg/mL
same,MIC,"S. aureus; Staphylococcus aureus, NRS 1 / VISA, S. aureus NRS1 (VISA)",0.25 µg/mL
same,MIC,"S. aureus; Staphylococcus aureus, NRS107, S. aureus NRS107 (HL Mup rest.), read-out: MIC",0.06 µg/mL
same,MIC,"S. aureus; Staphylococcus aureus, S. aureus 10-420 (LL Mup. Rest.), read-out: MIC",0.25 µg/mL
same,MIC,"S. aureus; Staphylococcus aureus, S. aureus 14-354 (LL Mup. Rest.), read-out: MIC",0.25 µg/mL
same,MIC,"S. aureus; Staphylococcus aureus, S. aureus 25-670 (HL Mup. Rest.), read-out: MIC",0.25 µg/mL
same,MIC,"S. aureus; Staphylococcus aureus, S. aureus 31-1334 (LL Mup Rest.), read-out: MIC",0.25 µg/mL
same,MIC,"S. aureus; Staphylococcus aureus, S. aureus 36-1298 (LL Mup. Rest.), read-out: MIC",0.06 µg/mL
same,MIC,"S. aureus; Staphylococcus aureus, S. aureus 87-2797 (HL Mup. Rest.), read-out: MIC",0.25 µg/mL
same,MIC,"S. aureus; Staphylococcus aureus, S. aureus 87-2797 (Mup. Susc.), read-out: MIC",0.25 µg/mL
same,MIC,"S. aureus; Staphylococcus aureus, S. aureus 101-100 (Mup. Susc.), read-out: MIC",0.12 µg/mL
same,MIC,"S. aureus; Staphylococcus aureus, S. aureus LZ1 (HL Mup rest.), read-out: MIC",0.12 µg/mL
same,MIC,"S. aureus; Staphylococcus aureus, S. aureus LZ6 (HL Mup rest.), read-out: MIC",0.25 µg/mL
same,MIC,"S. aureus; Staphylococcus aureus, S. aureus LZ8 (LL Mup. Rest.), read-out: MIC",0.25 µg/mL
same,MIC,"S. aureus; Staphylococcus aureus, S. aureus LZ9, read-out: MIC",0.25 µg/mL
same,MIC,"S. aureus; Staphylococcus aureus, S. aureus LZ10, read-out: MIC",0.25 µg/mL
same,MIC,"S. aureus; Staphylococcus aureus, S. aureus Miles Hall, read-out: MIC",0.12 µg/mL
same,MIC,"S. aureus; Staphylococcus aureus, S. aureus Oxford, read-out: MIC",0.12 µg/mL
same,MIC90,"S. aureus; Staphylococcus aureus, all S. aureus strains of Table 1, read-out: MIC 90",0.25 µg/mL
same,MIC,"S. aureus; Table 12, S. aureus 25-670, high level mupirocin-resistant, agent alone",0.5 8 g/mL
same,MIC Range,S. aureus; all S. aureus strains of Table 1 (mupirocin-susceptible and -resistant),0.06 to 0.25 µg/mL
same,MIC,E. faecalis; [4],0.03 µg/mL
same,MIC,E. faecalis; E. faecalis 1,0.015 µg/mL
same,MIC,E. faecalis; E. faecalis 7,0.06 µg/mL
same,MIC,E. faecium,≤ 0.004 µg/mL
same,Mutation Frequency (48 hours),"[2]; S. aureus 31-1334 (low level mupirocin-resistant), selecting concentration 2 x MIC",3.3 × 10^−7
same,Mutation Frequency (48 hours),"[2]; S. aureus 31-1334 (low level mupirocin-resistant), selecting concentration 4 x MIC",6.8 × 10^−8
same,Mutation Frequency (48 hours),"[2]; S. aureus 31-1334 (low level mupirocin-resistant), selecting concentration 8 x MIC",1.9 × 10^−8
same,Mutation Frequency (48 hours),"[2]; S. aureus ATCC 29213 (mupirocin susceptible), selecting concentration 2 x MIC",1.01 × 10^−7
same,Mutation Frequency (48 hours),"[2]; S. aureus ATCC 29213 (mupirocin susceptible), selecting concentration 4 x MIC",3.14 × 10^−8
same,Mutation Frequency (48 hours),"[2]; S. aureus ATCC 29213 (mupirocin susceptible), selecting concentration 8 x MIC",2.07 × 10^−8
CO[C@@H]1[C@@H](OC(N)=O)[C@@H](O)[C@H](Oc2ccc3c(O)c(NC(=O)c4ccc(O)c(CC=C(C)C)c4)c(=O)oc3c2C)OC1(C)C [Novobiocin],MIC,[1]; [5],0.25 µg/mL
same,MIC,[1]; Staphylococcus aureus,0.25 µg/mL
"C=C(F)c1sc(CNCCCNc2cc(=O)c3ccccc3[nH]2)c(C)c1Br [MRSi Cmpd 5, N-(4-bromo-5-(1-fluorovinyl)-3-methylthiophen-2-ylmethyl)-N′-(1H-quinolin-4-one)propane-1,3-diamine]",increase in MIC on over-expression of MRS,"[1]; +aTC vs −aTC, 0.01 μg/mL anhydrotetracycline",8 fold
same,MIC,[1]; [5],1 µg/mL
same,MIC,"[1]; S. aureus RN4220 (pYH4-MRS), −aTC (no anhydrotetracycline)",0.12 µg/mL
same,MICs of the most resistant isolates that could be selected,[3],16 µg/mL
